According to patent US20250082766A1, “TREATMENT OF BRAIN TUMORS BY TARGETING THE CHOLESTEROL PATHWAY IN ASTROCYES” (Ramot at Tel-Aviv University Ltd., priority 2022, published 2025):

Key:
[1] = tested on: reactive astrocytes / GL261 glioma; assay: Reactive astrocyte depletion with GCV in GL261-bearing WT or Gfap-TK mice; assay type: in vivo, mouse
Description: FIGS. 1A-I illustrate that depletion of Tumor-associated astrocytes (TAAs) regress glioblastoma progression. (FIG. 1A) Representative immunofluorescence images of reactive TAAs stained for GFAP (cyan) crowning a glioblastoma (GBM) tumor (GFP^+-GL261, white), and nuclei (DAPI, yellow). The right image is an expansion of the area marked by the white box. (n=3 biologically independent experiments, 3 mice per group). Scale bar, 1000 m; (FIGS. 1B-I) WT (wild type), or Gfap-TK GBM-bearing mice were treated daily with Ganciclovir (GCV, 25 mg/kg) from day 10 until the experimental endpoint as illustrated in FIG. 1B. (FIG. 1C) representative immunofluorescence images of reactive astrocyte depletion at the tumor margins (GFP^+-GL261, white), as detected by GFAP staining (cyan). Scale bars, 500 m. Data are representative of three independent experiments with n=4 mice/group. (FIGS. 1D-G) Tumor size in GCV-treated WT or Gfap-TK GBM-bearing littermates. (FIGS. 1D-E) Representative images of GL261-derived bioluminescence from each group are shown in FIG. 1D and quantification of tumor size in FIG. 1E. Data are representative of five independent experiments with n=6 mice/group. (FIGS. 1F-G) Representative images from each group, 17 days after GL261 cell implantation, are shown in FIG. 1F with quantification of tumor size in FIG. 1G, tumor (GL261 cells in purple), and nuclei (DAPI; white). Scale bar, 1000 m. Data are representative of three independent experiments with n=5 mice/group. (FIG. 1H) Bodyweight assessment of mice from FIGS. 1D-E. (FIG. 1I) Kaplan-Meier curves assessing overall survival. Data are representative of three independent experiments with n=8 mice/group. Data in FIGS. 1D-H are shown as mean±s.e.m. P values were determined by two-way ANOVA (FIGS. 1D-H) or Log rank (Mantel-Cox) test (FIG. 1I). *P<0.05, **P<0.01, ***P<0.001, n.s. not significant.
For intracranial mouse glioma, mice were anesthetized, positioned in a Stereotaxic Alignment System, and injected with 1.5×10^4 GL261 or CT-2A cells in 2 μl of DMEM. Injections were made to the right frontal lobe, approximately 2.5 mm lateral and 0.1 mm caudal from bregma at a depth of 3 mm. In-vivo bioluminescence imaging, following XenoLight D-luciferin Potassium Salt administration (150 mg/kg) i.p. administration, was determined using IVIS Spectrum system (PerkinElmer). Ganciclovir (GCV, Cymevene, Roche #SAP-10051872; 25 mg/kg), Diphtheria-toxin (DT, Sigma-Aldrich, #D0564; 1100 ng/mice), or vehicle control (PBS) were administered daily following tumor establishment (day 10), as previously described (Mayo, L., et al. Nat Med (2014) 20: 1147-1156). CD8^+ T cell depletion was performed using an anti-CD8 monoclonal antibody ([…], Bioxcell) or an isotype control monoclonal antibody (2A3, Bioxcell), as previously described (Takenaka, M. C. et al. Control of tumor-associated macrophages and T cells in glioblastoma via AHR and CD39. Nat Neurosci 22, 729-740 (2019)). GBM-bearing mice were intraperitoneally injected (0.1 mg/mouse) with an anti-CD8 or an isotype control mAbs, 1 day before, and 7 days after, GCV administration. CD8 T-cell depletion was validated by FACS analysis using a Sony SH800 FACS instrument (Sony Biotechnology). Data analysis was performed using FlowJo v10 (TreeStar, USA). The following reagents were used for analysis: anti-CD45 (1:100; 30-F11, Biolegend, #103106), anti-CD3[…] (1:50; 145-2C11, Biolegend #100335), and anti-CD8a (1:100; 53-6.7, Biolegend, #100765).
To study the role of TAAs in glioblastoma, the course of tumor progression was analyzed in mice expressing the herpes simplex virus thymidine kinase (HSVtk) under the Gfap promotor (Gfap-TK), in which Ganciclovir (GCV) administration can deplete reactive astrocytes. For this purpose, GFP^+GL261-Luc (GL261) was intracranially injected […], into syngeneic C57Bl/6 WT or into Gfap-TK littermates. […]

glioma = details: OXPHOS-targeting drugs; cited from earlier work
[2] = tested on: GL261 and CT-2A glioma cells; assay: Cell viability assay (Annexin V/DAPI FACS) of glioma cells; assay type: cell-based, mouse; details: GL261 or CT-2A in LPDS-media; cholesterol 250 ng/ml for 5 days; FIGS. 5F-G
Experimental: FIGS. 5A-N illustrate that astrocyte-derived cholesterol supports glioma survival. (FIGS. 5A-D) Real-time changes in the ECAR (FIGS. 5A-B) and oxygen consumption rate (OCR) (FIGS. 5C-D) of GL261 glioma cells, cultured in media supplemented with full serum (FCS, fetal calf serum) or lipoprotein-deprived serum (LPDS, Lipoprotein-deficient serum) for 18 hours and measured using Seahorse. Oligo, oligomycin; FCCP, carbonyl cyanide4-(trifluoromethoxy) phenylhydrazone; R/A, rotenone plus antimycin A; 2-DG, 2-deoxy-d-glucose. Glycolysis, glycolytic capacity and glycolytic reserve were extracted from the ECAR reading, and basal respiration, adenosine triphosphate (ATP) production, Maximal respiration, and spare respiratory capacity were determined based on OCR. Data are representative of two independent experiments (n=6 technical replicates per experiment). (FIG. 5E) Percentage of cell death of GL261 and CT-2A glioma cells, or primary astrocytes, cultured in FCS or LPDS for 5 days; as determined by Annexin-V assay (n=5 independent experiments). […] Representative flow cytometry plots of Annexin-V/DAPI staining from each group are shown in FIG. 5F and quantification analyses of cholesterol rescue are in FIG. 5G (n=5 biologically independent experiments). (FIGS. 5H-K) Representative images and quantification of LDLR expression (Immunoblot, FIGS. 5H-I) and cell death via FACS analysis of Annexin V/DAPI staining (FIGS. 5J-K) in response to endogenous LXR agonists (24-OHC) or Mock (DMSO) treatment in GL261 and CT-2A cells (n=3 biologically independent experiments). […] (FIGS. 5L-M) Representative flow cytometry plots of murine GL261 and CT-2A glioma cells co-cultured for 5 days with primary mouse astrocytes are shown in FIG. 5L and quantification analyses in FIG. 5M (n=4 biologically independent experiments). (FIG. 5N) quantification analyses of human U87EGFRvIII (U87) glioma cells co-cultured with human primary astrocytes for 5 days (n=3 biologically independent experiments). […]

## Nc1nc(O)c2ncn(COC(CO)CO)c2n1 [GCV, Ganciclovir]
[1]; GBM-bearing Gfap-TK mice (not in WT mice), GCV 25 mg/kg daily from day 10, FIG. 1C
  reactive astrocytes around the tumors (GFAP staining): specific ablation of reactive astrocytes
[1]; GCV-treated GL261-bearing Gfap-TK mice vs WT littermates, FIG. 1H
  weight loss: significantly attenuates the weight loss
[1]; GCV-treated GL261-bearing Gfap-TK mice vs WT littermates, FIG. 1I
  survival: dramatically improves their survival
[1]; GCV-treated GL261-bearing Gfap-TK vs WT mice, day 17, FIGS. 3D-E
  accumulation of IBA-1+ TAMs in the TME: significantly reduces
[1]; GL261-bearing Gfap-TK mice, GCV 25 mg/kg daily from day 10, FIGS. 1D-G
  tumor size (bioluminescence, histology): dramatic tumor regression
[1]; GL261-bearing WT mice, GCV 25 mg/kg daily vs vehicle, FIG. 7A
  GBM progression (tumor size, bioluminescence): neither GCV treatment of WT mice nor genetic insertion of the HSVtk into Gfap-TK mice (without GCV treatment) affected GBM progression
[1]; GL261-bearing WT mice, GCV vs vehicle, FIG. 7E
  survival: had no effect on survival

## Cc1nc(-c2nc(-c3ccc(OC(F)(F)F)cc3)no2)nn1Cc1cccc(N2CCC(S(C)(=O)=O)CC2)c1 [IACS-010759]
glioma
  glioma proliferation and cell death: inhibit glioma proliferation and induce cell death

## CC(C)CCC[C@@H](C)[C@H]1CC[C@H]2[C@@H]3CC=C4C[C@@H](O)CC[C@]4(C)[C@H]3CC[C@]12C [cholesterol]
[2]
  rescue of glioma viability from lipoprotein-bound cholesterol deprivation: overcame the deleterious effects of lipoprotein-bound cholesterol deprivation on glioma viability

## CN(C)C(=N)N=C(N)N [metformin]
glioma
  glioma proliferation and cell death: inhibit glioma proliferation and induce cell death
